Test results: paper PMC11234460, “In Silico Discovery of Stapled Peptide Inhibitor Targeting the Nur77‐PPARγ Interaction and Its Anti‐Breast‐Cancer Efficacy” (Advanced Science, 2024)
Where a SMILES comes first, the peptide text is derived from it. Bridges are numbered along the chain shown (N, C = ends). [ ]: non-standard residue; d: D form. S5 = C=CCCC[C@](C)(N)C(=O)O

Columns and labels:
[1] = system: MCF7 cells; assay: Scratch (wound-healing) assay; format: cell-based, human; conditions: MCF7, 12 h
Protocol: MCF7 and MDA‐MB‐231 cells were seeded in 6‐well plates and cultured overnight. Once the cell density reached 90%, a line was scratched along the center of the 6‐well plate and images were taken randomly in the scratch domain under a microscope. The cells in each well were then treated with peptides of varying concentrations for 12 h, after which images were taken again in the scratch domain. The formula used to calculate the scratch healing rate was as follows: Scratch healing rate (%) = [(Scratch area at 0 h – Scratch area at 12 h) […] Scratch area at 0 h] × 100%.

[2] = system: MCF7 cells; assay: Long-chain fatty acid uptake assay (BODIPY FL C16); format: cell-based, human; conditions: 24 h, BODIPY FL C16 1 h
Protocol: 5×10^4 MCF7 cells were seeded in confocal dishes and cultured overnight at 37 °C and 5% CO2. The cells were then incubated with a basic DMEM medium containing various concentrations of peptides (1/2/5/10/20 × 10^−6 M for flow cytometry and 10 × 10^−6 M for immunofluorescence) for 24 h. Afterward, 1 µL BODIPY FL C16 (1 × 10^−6 M, Thermo Fisher, D3821) was added to the confocal dishes and incubated with the cells for 1 h. Following incubation, the cell nuclei were stained with Hoechst for 8 min. Uptake of FA was monitored using flow cytometry (CytoFLEX, Beckman Coulter, USA) and DeltaVision OMX (GE, USA).

[3] = system: MDA-BoM-1833 bone metastasis; assay: Bone metastatic breast cancer model (MDA-BoM-1833, left ventricle injection); format: in vivo, mouse
Source text: Female BALB/c mice (4–5 weeks old, 16–18 g) and BALB/c mice (7–8 weeks old, 18–20 g) were provided by Shanghai Slake Experimental Animal Co., Ltd., and housed under specific pathogen‐free conditions for use in orthotopic xenograft tumor model experiments and bone metastasis tumor model experiments. The animal experiment was approved by the ethical committee of Shanghai University of Traditional Chinese Medicine (approval number: PZSHUTCM220627036).
To establish the bone metastasis tumor model, 1×10^5 cells were injected into the left ventricle of each mouse (7–8 weeks old), and surgery was monitored using a cardiac ultrasound instrument. The mice were randomly divided into three groups and treated with PBS (control group, n = 6), 5 mg kg^−1 ST‐CY14 (n = 6), and 10 mg kg^−1 ST‐CY14 (n = 6) Tumor cell metastasis was monitored using an in vivo imaging instrument (IVIS Spectrum, PerkinElmer, USA). by intraperitoneal injection of 20 mg kg^−1 D‐luciferin. The mice were treated with ST‐CY14 via intravenous injection using a 100 µL PBS solution every 2 days starting on the designated day after tumor cell injection. Bone tissue with MDA‐BoM‐1833 cell metastasis was obtained and stained for TRAP. The mice sera were collected and analyzed for BSP and β‐CTx levels using ELISA (Lengton, BPE10823, BPE10438). For the orthotopic xenograft tumor model, 3×10^6 cells were injected into the fourth pair of breast pads on the left side of the mouse (4–5 weeks old). The mice were treated with ST‐CY14 every two days once the tumor volume reached 30–50 mm^3, with the same groups as in the bone metastasis tumor model. The tumors were collected and stained for H&E, Ki‐67, and TUNEL assays, which were conducted by Wuhan Servicebio Technology Co., Ltd. Major organs (heart, liver, spleen, lung, and kidney) were also collected for H&E analysis by Wuhan Servicebio Technology Co., Ltd. The Transcriptome and LC/MS targeted lipid metabolome were sequenced by OE Biotech, Inc., Shanghai, China. To evaluate the efficacy of Csn‐B in inhibiting breast cancer bone metastasis, an animal model was established as described above. The mice were randomly divided into three groups and treated with PBS (control group, n = 6), 10 mg kg^−1 ST‐CY14 (n = 6) in 100 µL PBS solution, and 5 mg kg^−1 ST‐CY14 (n = 6) in a 100 µL mixed solution (5% DMSO, 20% PEG 400, 5% Tween 80, and 70% normal saline) via intravenous injection every 2 days starting on the designated day after tumor cell injection.

[4] = system: MDA-MB-231 cells; assay: Western blot of Nur77, CD36 and FABP4; format: cell-based
Protocol: MCF7 and MDA‐MB‐231 cells were treated with various concentrations of peptide. The cells were then collected and lysed in NP40 lysis buffer. Total protein was quantified using a BCA assay kit (Beyotime, P0010S). The proteins were separated by SDS‐PAGE and transferred onto a PVDF membrane. The PVDF membrane was blocked in TBST containing 5% non‐fat milk, and then incubated with primary antibodies overnight at 4 °C. Subsequently, membranes were incubated with horseradish peroxidase‐conjugated antirabbit or antimouse IgG secondary antibody for 1 h at room temperature. The membranes were analyzed by a Tanon‐5200 Multi Gel Imaging Analysis System (Tanon) and quantified by ImageJ software.

[5] = biological target: T1, Nur77-PPARγ complex (Homo sapiens, UniProt P22736); assay: NanoBiT assay of Nur77-PPARγ complex formation in HEK293T cells; format: cell-based; conditions: 1 × 10^−5 M peptide, 1 h, n = 3
T1 construct: expressed in transfected cells; host or cells: HEK293T
Protocol: HEK293T cells were seeded in a poly‐d‐lysine‐coated black 96‐well cell culture plate at 10 000 cells per well in 100 µL culture medium. The next day, the master mix of 100 ng receptor construct containing the PPARγ‐LargeBit and SmallBit‐Nur77 plasmids (w/w, 50 ng:50 ng) was diluted in Opti‐MEM Medium (Gibco, 11058‐021), then P3000 Reagent was added. Meanwhile, 0.15 µL Lipofectamine 3000 reagent (ThermoFisher, L3000015) was added to 5 µL Opti‐MEM Medium. Subsequently, diluted DNA was added to Lipofectamine 3000 reagent (V/V, 1:1) and incubated for 15 min at room temperature. A mixture containing the above plasmids and Lipofectamine 3000 was prepared and added to each well. After 24 h, the cells were treated with 1 × 10^−5 M peptides (TAT, T‐CY14, S‐CY14, and ST‐CY14) or variable concentrations of ST‐CY‐14 (0.1/0.2/0.5/1/2/5/10/20/40 × 10^−6 M) for 1 h. The culture medium was replaced with 90 µL Tyrode's solution (Solarbio, T1420). Then, 10 µL furimazine (5 × 10^−5 M) was added to each well and the luminescence signal was measured every 86 s for 1 h at 37 °C.

T1 sequence (P22736 whole entry, one chain of several): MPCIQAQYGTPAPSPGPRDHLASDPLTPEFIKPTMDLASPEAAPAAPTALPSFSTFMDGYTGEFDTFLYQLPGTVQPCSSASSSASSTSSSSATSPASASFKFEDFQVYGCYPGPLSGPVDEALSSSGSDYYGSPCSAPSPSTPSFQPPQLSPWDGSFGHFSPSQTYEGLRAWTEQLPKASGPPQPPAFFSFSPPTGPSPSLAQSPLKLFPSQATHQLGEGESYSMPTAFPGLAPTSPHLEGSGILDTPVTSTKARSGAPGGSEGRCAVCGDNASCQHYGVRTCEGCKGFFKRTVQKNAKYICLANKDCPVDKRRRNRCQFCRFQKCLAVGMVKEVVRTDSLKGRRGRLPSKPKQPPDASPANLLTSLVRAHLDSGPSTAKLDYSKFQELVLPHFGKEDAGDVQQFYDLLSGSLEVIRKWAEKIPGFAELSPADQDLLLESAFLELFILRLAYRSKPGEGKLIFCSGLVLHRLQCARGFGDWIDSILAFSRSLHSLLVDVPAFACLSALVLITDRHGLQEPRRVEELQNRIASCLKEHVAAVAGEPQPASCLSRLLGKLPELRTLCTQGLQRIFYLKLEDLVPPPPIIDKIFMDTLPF

C[C@@H](O)[C@@H]1NC(=O)[C@H](CCCNC(=N)N)NC(=O)[C@H](CCCNC(=N)N)NC(=O)[C@@](C)(NC(=O)[C@H](Cc2ccccc2)NC(=O)CNC(=O)[C@H](CCCCN)NC(=O)[C@H](CS)NC(=O)CNC(=O)[C@H](CCC(=O)O)NC(=O)[C@@H](N)CS)CCCC=CCCC[C@@](C)(C(=O)N[C@@H](CCCNC(=N)N)C(=O)N[C@@H](Cc2ccc(O)cc2)C(=O)N[C@@H](Cc2ccc(O)cc2)C(=O)NCC(=O)N[C@@H](CCCNC(=N)N)C(=O)N[C@@H](CCCCN)C(=O)N[C@@H](CCCCN)C(=O)N[C@@H](CCCNC(=N)N)C(=O)N[C@@H](CCCNC(=N)N)C(=O)N[C@@H](CCC(N)=O)C(=O)N[C@@H](CCCNC(=N)N)C(=O)N[C@@H](CCCNC(=N)N)C(=O)N[C@@H](CCCNC(=N)N)C(N)=O)NC1=O [ST-CY14] (H-CEGCKGF[S5]RRT[S5]RYYGRKKRRQRRR-NH2; staple 8-12)
Scratch healing [1]: suppressed the scratch healing | FA uptake (flow cytometry) ([2]; MCF7, 1-20 × 10^−6 M): dose‐dependent decrease in FA levels | FA uptake (immunofluorescence) ([2]; MCF7, 1 × 10^−5 M): inhibited FA uptake | Bone metastasis (bioluminescence imaging) ([3]; 5 and 10 mg kg^−1 i.v. every 2 days, day 28, n = 6): inhibited the metastasis of tumor cells | H&E staining of major organs ([3]; heart, liver, spleen, lung, kidney, n = 3): None of the groups demonstrated notable changes in H&E staining of major organs | Efficacy in inhibiting bone metastasis compared with Csn-B ([3]; i.v. every 2 days, day 28, n = 6): superior to that of Csn‐B | TRAP level in mouse femoral head ([3]; staining of bone tissue): decrease in the level of tartrate‐resistant acid phosphatase | BSP and β-CTx levels in mouse blood (ELISA) ([3]; versus control group): Lower levels | CD36 and FABP4 protein expression (immunoblot) [4]: inhibited the protein expression of CD36 and FABP4 | Nur77 protein expression (immunoblot) [4]: increase in Nur77 expression | Effect on NanoBiT luminescence (Nur77-PPARγ complex) [5]: effectively inhibited the formation of the Nur77‐PPARγ complex
